The results in this text go back to US10433553B2, “Salts of N-(1,3,4-oxadiazol-2-yl) aryl carboxylic acid amides and the use of same as herbicides” (BAYER CROPSCIENCE AKTIENGESELLSCHAFT, priority 2015, dated 2019).

Common to all, as to assay type: in vivo
Holding throughout (conditions): dosage 5 g/ha, assessed visually after about 3 weeks

One series concerns TRZAS. Briefly: Post-emergence damage to crop plants. The method, then:
(§1) 2. Post-Emergence Herbicidal Action Against Harmful Plants
(§2) Seeds of monocotyledonous and dicotyledonous weed and crop plants are laid out in sandy loam in wood-fiber pots, covered with soil and cultivated in a greenhouse under good growth conditions. 2 to 3 weeks after sowing, the test plants are treated at the one-leaf stage.

The subject of the next series is VERPE. Briefly: Post-emergence herbicidal action against harmful plants. The method, then: as §1, §2
Another series concerns ALOMY. The series is described as above. The method, then: as §1, §2

`Cc1nnc([N-]C(=O)c2ccc(C(F)(F)F)c([S+](C)[O-])c2Cl)o1.[Na+]` (centres unmarked): the “Damage to TRZAS” value in the series on TRZAS was determined as 0%. Moreover, the “Activity against VERPE” value in the series with VERPE worked out at 70%.

Regarding `Cc1nnc([N-]C(=O)c2ccc(C(F)(F)F)c(S(C)(=O)=O)c2C)o1.[Na+]` [drawing 51], in the series with TRZAS, the “Damage to TRZAS” value stood at 0%. Besides, in the series with VERPE, the “Activity against VERPE” value is reported as 100%. Besides, the “Activity against ALOMY” value with ALOMY worked out at 80%.
